Measured values taken from PMC12137546, “Development of a microarray based telomerase binding assay reveals unusual binding of a cytochalasin derivative” (Scientific Reports, 2025).

How the values were obtained:
[1] = molecular target: T1, telomerase reverse transcriptase (TERT) (Homo sapiens, UniProt O14746); assay: microscale thermophoresis; also microarray displacement of Cy5 primer cocktail (EC50 […]) and TRAP inhibition in cell lysate; format: binding; parameters: recombinant His-tagged full-length human TERT (pET28aTERT, E. coli, urea/N-lauroylsarcosine solubilized, Ni-IMAC)
T1 sequence (O14746 whole entry): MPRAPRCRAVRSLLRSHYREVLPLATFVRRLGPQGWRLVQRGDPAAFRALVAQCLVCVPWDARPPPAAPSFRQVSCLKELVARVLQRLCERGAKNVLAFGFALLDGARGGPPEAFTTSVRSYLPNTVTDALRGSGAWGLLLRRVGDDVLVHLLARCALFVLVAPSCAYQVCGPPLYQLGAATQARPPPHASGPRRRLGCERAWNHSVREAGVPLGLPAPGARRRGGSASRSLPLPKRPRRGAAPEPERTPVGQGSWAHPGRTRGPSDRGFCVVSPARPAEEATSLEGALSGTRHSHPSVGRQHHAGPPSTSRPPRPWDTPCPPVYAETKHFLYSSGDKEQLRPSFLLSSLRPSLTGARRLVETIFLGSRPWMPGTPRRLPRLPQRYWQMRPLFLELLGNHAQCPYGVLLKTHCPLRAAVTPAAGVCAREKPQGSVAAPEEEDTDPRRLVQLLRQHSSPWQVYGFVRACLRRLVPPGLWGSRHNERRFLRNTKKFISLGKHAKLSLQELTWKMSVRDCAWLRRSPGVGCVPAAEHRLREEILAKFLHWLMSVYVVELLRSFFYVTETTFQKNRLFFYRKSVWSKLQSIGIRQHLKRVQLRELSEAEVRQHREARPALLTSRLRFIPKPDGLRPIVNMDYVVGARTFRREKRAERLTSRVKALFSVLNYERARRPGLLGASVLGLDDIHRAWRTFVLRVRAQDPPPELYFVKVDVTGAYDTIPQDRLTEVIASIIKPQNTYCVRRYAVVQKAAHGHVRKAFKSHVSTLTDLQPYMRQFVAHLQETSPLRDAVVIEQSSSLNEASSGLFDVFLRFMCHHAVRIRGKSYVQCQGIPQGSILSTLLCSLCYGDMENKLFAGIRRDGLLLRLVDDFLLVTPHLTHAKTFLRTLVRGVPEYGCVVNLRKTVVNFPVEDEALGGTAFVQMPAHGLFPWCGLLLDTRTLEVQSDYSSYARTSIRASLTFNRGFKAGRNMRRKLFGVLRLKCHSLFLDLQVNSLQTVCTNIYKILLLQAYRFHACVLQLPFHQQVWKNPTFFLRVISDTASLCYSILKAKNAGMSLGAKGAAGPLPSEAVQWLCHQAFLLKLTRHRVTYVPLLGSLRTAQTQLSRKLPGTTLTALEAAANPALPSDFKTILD

[2] = molecular target: T1, telomerase reverse transcriptase (TERT); assay: microarray displacement of Cy5 primer cocktail from spotted TERT and lysates; TRAP inhibition in lysate at […]; format: binding; parameters: recombinant His-tagged full-length human TERT (pET28aTERT, E. coli) and cell lysates

| Compound | Kd [1] | EC50 [2] |
| --- | --- | --- |
| O=C(O[C@@H]1Cc2c(O)cc(O)cc2O[C@@H]1c1cc(O)c(O)c(O)c1)c1cc(O)c(O)c(O)c1 [EGCG, epigallocatechin-3-gallate] | ~26 µM | – |
| C=C1[C@@H](C)C2[C@H](Cc3ccc(I)cc3)NC(=O)[C@@]23C(/C=C/C[C@H](C)C[C@@](C)(O)/C=C/[C@H]3OC(C)=O)[C@@H]1O (some centres unmarked) [compound 7, 4’-iodo cytochalasin H] | – | 2.76 to 4.41 µM |
